Results from patent publication US6831080B2, “Cinnamide derivatives as KCNQ potassium channel modulators” (Bristol-Myers Squibb Company, priority 2001, dated 2004).
Structures can show the parent of a compound that is named as a salt.

Columns and labels:
[1] = test system: chlordiazepoxide + amphetamine induced hyperactivity, Sprague Dawley rats; assay: Mania/bipolar model: chlordiazepoxide + d-amphetamine induced hyperactivity, locomotor activity; type: in vivo, rat
Method: Subjects: Female Sprague Dawley rats (Hilltop Lab Animals, Scottdale, Pa.), weighing 150-200 g at the beginning of the experiment, were used in the experiment described in this example. Animals were individually housed in standard shoebox cages and maintained on a 12:12 h light-dark cycle (lights on at 0600). All animals were allowed food and water ad libitum throughout the experimental procedure. Prior to arrival to the testing facility, the rats were anesthetized with vaporized Isoflurane and catheters were surgically implanted into the jugular vein. The catheters were made of silastic medical grade tubing (15 cm long, 0.02″ internal diameter, 0.037″ external diameter), fastened with sutures to muscle near the jugular vein and at the nape of the neck, then sealed with smooth pieces of monofilament that were secured at the nape of the neck.
Lithium chloride (LiCl), chlordiazepoxide hydrochloride (CDP) and d-amphetamine sulfate (Amph) were obtained from Sigma Chemical Company (St. Louis, Mo.). LiCl was dissolved in a vehicle of isotonic saline and injected intraperitoneally (i.p.) at a dose of 2 mEq/kg. CDP and Amph were dissolved in a vehicle of sterile water (Phoenix Scientific, Inc., St. Joseph, Mo.) and injected subcutaneously (s.c.) at a dose of 12.5 mg/kg and 1.18 mg/kg, respectively. Combination treatment of CDP and Amph represented the s.c. injection of a 1:1 mixture of both compounds at the above referenced doses. Compound of Example 1 was dissolved in dimethylsulfoxide (DMSO) and brought to volume with propylene glycol (PG) such that the final vehicle represented a 4% DMSO/96% PG solution. […]
Thirty minutes after final s.c. dosing with either CDP+Amph, Amph alone or vehicle, rats were placed in locomotor activity testing apparatus. […] Data were analyzed using a priori planned analyses of variance where an effect was considered significant if p<0.05.

mKCNQ2 channels = biological target: T1, mKCNQ2 channels (Mus musculus, UniProt Q9Z351); assay: Whole-cell patch-clamp, HEK 293 stable cell line expressing mKCNQ2 channels; type: cell-based; details: HEK 293 mKCNQ2, Hill fit
T1 construct: expressed in transfected cells
Method: Whole-cell patch-clamp recordings were made from an HEK 293 stable cell line expressing mKCNQ2 channels, maintained in culture for 1-2 days. Patch pipettes had initial resistances of 2.5-4 MΩ. Currents were recorded with an EPC-9 amplifier (HEKA, Lambrecht, Germany) controlled with software (Pulse, HEKA) run on a standard lab PC. Series resistance compensation was used during current recording, and set at 80%. The series resistance (R) and cell capacitance (C) were determined electronically by subtracting the capacitive currents at the onset and offset of a 5 mV voltage step. The cancellation of whole-cell capacitance transients was virtually complete in all cells. Analog current signals were low-pass filtered at 2.9 kHz using a four-pole Bessel filter −3 dB) and stored on a local network server computer at a sampling rate of […]. All recordings were performed at room temperature (20-22° C.). The pipette solution contained (mM): KCl, 150; CaCl2, 2.5; EGTA, 5; MgCl2, 1; HEPES, 10; pH to 7.3 with KOH, and Osmolality of 290-300 mOsm. The extracellular solution contained (mM): NaCl, 140; KCl, 2.5; CaCl2, 2.5; MgCl2, 1; glucose, 10; HEPES, 10; pH to 7.3 with NaOH, and Osmolality of 305-310 mOsm
Concentration response data were generated by measuring the difference in the steady-state amplitude of current in the presence of compound at the end of a 600 ms voltage-clamp step from a holding potential of −80 mV. The concentration-response data were fitted with Hill-type equations: […]
where I is the steady-state current at a given concentration of agonist [A]; and Imax, EC50 and nH are parameters estimated from the curve fit. In some cases the concentration-response data were fitted with equations consisting of the sum of two Hill-type components. Current-voltage (I/V) relationships for agonist-evoked currents were obtained by performing 600 ms voltage steps (−110 mV to +40 mV) in the absence and presence of agonist.

[2] = test system: streptozoticin-induced tactile allodynia, Sprague Dawley rats; assay: Diabetic model of neuropathic pain (streptozoticin and von Frey test); type: in vivo, rat; details: 10 mg/kg, i.v.; von Frey thresholds over 90 min; STZ diabetic model
Method: To test agents for activity against systemic polyneuropathy nerve injury-induced tactile allodynia, animals were treated with streptozoticin (STZ) to create a diabetic condition by selective cytotoxic action upon pancreatic β-islet cells that produce insulin following the method of Courteix, et al. (Courteix C., et al., (1993) Pain, April;53(1):81-8). In brief, male Sprague Dawley rats (wt. 200-275 g) received an injection of STZ (75 mg/kg, i.p.) and diabetes was confirmed three weeks after STZ injection by measurement of tail vein blood glucose levels. After 3-4 weeks, paw withdrawal to light touch was assessed as described by Chaplan et al. (Chaplan S. R., et al., (1994) J Neurosci Methods, July;53(1):55-63). In brief, rats are placed in a plastic cage with a wire mesh bottom and allowed to acclimate for 15-30 minutes, until cage exploration and grooming stops. The plantar surface of each hind paw is touched with a series of von Frey hairs with varying stiffness requiring a known force to buckle to determine the nociceptive threshold. Adult male Sprague Dawley rats (avg. wt. 300 g) were tested in the present study. After acclimation, baseline von Frey thresholds were assessed for the injured hindpaw at -15 min. All test compounds were delivered at 0 min by the intravenous (i.v.) route in a volume of 0.5-2 ml/kg. […] Animals were tested in one of the following 4 treatment conditions: […] Following drug administration, von Frey thresholds are measured at 15, 30, 60 and 90 min. Data were analyzed by a 2-way repeated measures analysis of variance followed by Dunnett's test (p<0.05). Experimenters were kept blind to the treatment condition of rats they tested. […] Specifically, drug effects can be described in terms Δ% MPE according to the following equation: {[…] under the curve for von Frey thresholds of the drug-treated group; AUCvehicle=area under the curve for von Frey thresholds in the vehicle group; Time=duration of post-drug testing period (90 min); and Max=maximum von Frey threshold (15 g).

[3] = test system: nerve injury-induced tactile allodynia (L5/L6 ligation), Sprague Dawley rats; assay: Chung model of neuropathic pain (Chung surgery and von Frey test); type: in vivo, rat; details: 3 mg/kg, i.v., von Frey thresholds over 90 min
Method: To test agents for activity against peripheral mononeuropathy nerve injury-induced tactile allodynia, male Sprague Dawley rats (wt. 120-160 g) were surgically prepared with unilateral tight ligation of spinal nerves L5 and L6 following the method of Kim and Chung (Kim S. H., Chung J. M. (1992) Pain, September;50(3):355-63). After 3-4 weeks recovery, paw withdrawal to light touch was assessed as described by Chaplan et al. (Chaplan S. R., et al., (1994) J. Neurosci Methods, July;53(1):55-63). In brief, rats are placed in a plastic cage with a wire mesh bottom and allowed to acclimate for 15-30 minutes, until cage exploration and grooming stops. The plantar surface of each hind paw is touched with a series of von Frey hairs with varying stiffness requiring a known force to buckle to determine the nociceptive threshold. Adult male Sprague Dawley rats (avg. wt. 340 g) were tested in the present study. After acclimation, baseline von Frey thresholds were assessed for the injured hindpaw at −15 min. All test compounds were delivered at 0 min by the intravenous (i.v.) route in a volume of 0.5-2 ml/kg. The vehicle for test compounds was 100% PEG-400. For gabapentin the vehicle was deionized H2O. Animals were tested in one of the following 4 treatment conditions: (a) PEG400, (b) gabapentin (Neurontin) 100 mg/kg, (c) test compounds 3 mg/kg and (d) test compounds 10 mg/kg. Following drug administration, von Frey thresholds are measured at 15, 30, 60 and 90 min. Data were analyzed by a 2-way repeated measures analysis of variance followed by Dunnett's test (p<0.05). Experimenters were kept blind to the treatment condition of rats they tested.
Reversal of neuropathic pain behavior may be expressed as a percentage (0-100%) of the maximum possible effect, over and above the vehicle effects. Specifically, drug effects can be described in terms Δ% MPE according to the following equation: [formula]
AUCdrug=area under the curve for von Frey thresholds of the drug-treated group;
AUCvehicle=area under the curve for von Frey thresholds in the vehicle group;
Time=duration of post-drug testing period (90 min); and
Max=maximum von Frey threshold (15 g).
For example, a compound which immediately reversed neuropathic pain behavior to normal levels, such that animals only responded to the highest von Frey filament (15 g), and maintained normal levels through out the post-drug testing period (90 min) would be calculated as Δ% MPE=100%.

[4] = test system: cortical spreading depression (KCl application), Long-Evans rats; assay: In vivo electrophysiology: number of cortical spreading depressions produced by KCl application; details: 1 mg/kg, i.v., 15 min prior to KCl; rat
Text: Male Long-Evans rats (300-450 g) were used in the present studies (Harlan). Rats were anesthetized with urethane anesthesia (1.2 g/kg i.p.) and placed in a stereotaxic frame. Under anesthesia a Silastic catheter was placed in the jugular vein of the rats. The skull was exposed using a scalpel. A small hole (approximately 2 mm by 3 mm) was drilled in to the skull rostral to the lambdoid suture using a microdrill and steel burr. The dura was disrupted and a drop of mineral oil was placed in this hole to prevent dehydration of the underlying cortex. Ultimately this hole was used for the application of crystalline KCl (described below).
Two additional holes were place in the skull unilaterally at 4 and 8 mm rostral to the application hole. Silver wire electrodes were placed in these latter holes and secured to the skull using acrylic cement. A similar silver wire electrode was sutured to the nuchal muscle to serve as a reference electrode. Electrical DC recordings were obtained using a standard differential amplifier (Warner, DP-304) and commercially available data acquisition equipment (Cambridge Electronic Design, 1401 A-D converter and Spike2 software).
All experimental procedures were conducted while the rats were maintained under anesthesia. Rats were injected with test compound, valproic acid or vehicle (100% PEG-400) 15 min prior to the application of crystalline KCl to the application site described above. All injections were given via the jugular vein at a volume of ≦0.5 ml/kg. Only one treatment was tested per animal. The effect of valproic acid was also determined in this study due to the fact that Depakote™ (divalproex sodium) is one of only three drugs currently indicated for the prophylatic treatment of migraine headache. Valproic acid (30-200 mg/kg i.v.) was obtained from Sigma Chemical Company and was dissolved in a vehicle of isotonic saline.
KCl was applied to the application site for 10 min and was then removed using a saline soaked cotton swab. Mineral oil was subsequently reapplied to the application site. Typically, this application produced a long-lasting series of spreading depressions. The number of spreading depressions produced by this KCl application was the primary measure used to access the effectiveness of compounds in this assay.
Data were analyzed using analyses of variance followed by the Dunnett post-hoc test for pairwise comparisons, when appropriate. A difference was considered significant when p≦0.05.
The effect of representative compounds of Formula I on spreading depression is expressed as the percent reduction from vehicle control and is listed in Table 3.

T1 sequence (Q9Z351 whole entry): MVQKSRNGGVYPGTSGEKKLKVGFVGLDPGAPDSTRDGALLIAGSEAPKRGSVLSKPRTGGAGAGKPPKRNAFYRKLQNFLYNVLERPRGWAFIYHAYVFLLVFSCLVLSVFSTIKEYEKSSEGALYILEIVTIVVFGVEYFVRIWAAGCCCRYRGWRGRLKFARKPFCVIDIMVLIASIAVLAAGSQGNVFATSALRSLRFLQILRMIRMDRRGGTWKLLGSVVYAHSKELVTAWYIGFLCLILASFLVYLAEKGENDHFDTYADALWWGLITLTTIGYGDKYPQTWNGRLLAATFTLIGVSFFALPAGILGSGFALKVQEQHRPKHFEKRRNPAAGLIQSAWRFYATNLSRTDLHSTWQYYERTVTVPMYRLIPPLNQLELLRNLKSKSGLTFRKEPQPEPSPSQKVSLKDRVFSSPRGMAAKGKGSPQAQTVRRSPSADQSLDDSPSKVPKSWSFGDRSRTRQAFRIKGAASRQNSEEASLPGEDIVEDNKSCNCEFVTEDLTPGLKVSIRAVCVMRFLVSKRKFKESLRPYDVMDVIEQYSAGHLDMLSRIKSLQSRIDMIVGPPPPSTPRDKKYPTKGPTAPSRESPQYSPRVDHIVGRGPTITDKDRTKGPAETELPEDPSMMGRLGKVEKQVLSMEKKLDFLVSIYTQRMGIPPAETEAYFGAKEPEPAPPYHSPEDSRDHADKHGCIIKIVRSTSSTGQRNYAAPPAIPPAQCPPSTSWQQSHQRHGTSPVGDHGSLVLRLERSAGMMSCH

Structure (SMILES): C[C@H](NC(=O)/C=C/c1ccc(F)cc1)c1ccc2ccccc2c1 [Compound of Example 1]
- Horizontal Activity Counts ([1]; 5 mg/kg i.v. 45 minutes pre-test, then chlordiazepoxide + d-amphetamine, first 10 minutes of testing): 7,859.2 + 661.21 counts
- Effect on augmentation of locomotor scores produced by the combination treatment ([1]; 5 mg/kg i.v. 45 minutes pre-test, F(1,16)=10.4, p=0.005): significantly prevented

Structure (SMILES): C[C@H](NC(=O)/C=C/c1cc(F)ccc1F)c1cccc(N2CCOCC2)c1 [Example 90, (S)-3-(2,5-Difluoro-phen-yl)-N-[1-(3-morpho-lin-4-yl-phenyl)-eth-yl]-acrylamide]
- EC50 (mKCNQ2 channels; @ −40 mV): 1.2 µM
- Emax (mKCNQ2 channels; HEK293, read-out: Imax (%)): 523%
- AUC (Δ% MPE) [2]: 56 (10 mg/kg, i.v.) Δ% MPE
- AUC (Δ% MPE) [3]: 13 (3 mg/kg, i.v.) Δ% MPE
- % Reduction (number of spreading depressions, from vehicle control) [4]: 37 (1 mg/kg, i.v.) %

Structure (SMILES): C[C@H](N)Cc1ccccc1 [d-amphetamine, d-amphetamine sulfate, reference compound]
- Horizontal Activity Counts ([1]; rat, in vivo): 8,772.3 + 426.02 counts
